pIC50: −log10 of the molar value. Values belong to the compound of their own block, whether it stands above or below them.
Columns and labels:
human LPA1 receptor = biological target: T1, human LPA1 receptor (Homo sapiens, UniProt Q92633); assay: Beta-arrestin recruitment assay (Tango EDG2-bla U2OS cells) to determine IC50 values for human LPAR1; assay type: cell-based; conditions: antagonist mode, LPA 18:1 500 nM final; geomean where multiple values
T1 construct: TEV protease site; Gal4-VP16 transcription factor; host or cells: Tango EDG2-bla U2OS cells
T1 sequence (Q92633 whole entry, the tested form may be a part): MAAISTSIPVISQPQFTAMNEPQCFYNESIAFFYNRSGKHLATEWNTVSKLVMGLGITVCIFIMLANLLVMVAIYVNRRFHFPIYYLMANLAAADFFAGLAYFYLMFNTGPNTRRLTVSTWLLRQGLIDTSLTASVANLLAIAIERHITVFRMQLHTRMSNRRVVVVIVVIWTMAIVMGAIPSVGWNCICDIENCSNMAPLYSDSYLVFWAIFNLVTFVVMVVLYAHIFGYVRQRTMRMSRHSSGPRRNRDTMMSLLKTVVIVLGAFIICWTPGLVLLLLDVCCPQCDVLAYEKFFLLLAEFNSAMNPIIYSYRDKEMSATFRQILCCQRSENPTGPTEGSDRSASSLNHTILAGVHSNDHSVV
Source text: Biological Assays Beta-Arrestin Recruitment Assay to Determine IC50 values for human LPAR1
The Tango™ EDG2-bla U2OS cells are obtained from Invitrogen. These cells contain the human LPA1 receptor cDNA linked to a TEV protease site and a Gal4-VP16 transcription factor integrated into the Tango™ GPCR-bla U2OS parental cell line. This parental cell line stably expresses a beta-arrestin/TEV protease fusion protein and the beta-lactamase (bla) reporter gene under the control of a UAS response element. Upon LPA (agonist) binding, LPA1 receptor gets activated, leading to arrestin-protease recruitment and proteolytic release of the transcription factor: The transcription factor then regulates transcription of a beta-lactamase reporter construct, which is measured upon addition of the live-cell substrate.
10'000 Tango™ EDG2-bla U2OS cells are seeded in a 384-well black with clear bottom plate in 30 μl Freestyle 293 Expression Medium (Invitrogen) and incubated for 20 h at 37° C., 5% CO2. For antagonist assays, 5 μl of test compound (dilution series in DMSO/Freestyle 293 Expression medium/0.1% fatty acid free BSA (Sigma)) or buffer control are added per well and incubated for 30 min at 37° C., 5% CO2. 5 μl of LPA 18:1 (500 nM final) (solution in Freestyle 293 Expression medium/0.1% fatty acid free BSA (Sigma)) are added per well and the plate incubated for 16 h at 37° C., 5% CO2. Cells are then loaded with LiveBLAzer-FRET™ B/G Substrate (Invitrogen) for 2 h in the dark and the fluorescence emission at 460 nm and 530 nm is measured using the SynergyMx reader (BioTek). Following the background subtraction from both channels, the 460/530 nm emission ratio for each well is calculated, then plotted and fitted to a 4-parameter logistic function to obtain IC50 values. IC50 is the concentration of antagonist inhibiting 50% of the maximal response.
Where multiple values were measured, geomean values are given.

[1] = cited from earlier work
[2] = system: LPA-induced vascular leakage; assay: mouse LPA-induced skin vascular leakage model; assay type: in vivo; conditions: oral administration of 30 mg/kg to mice
Description: The in vivo potency of the compounds of Formula (I) can be determined using a mouse LPA-induced skin vascular leakage model. Female Balb/c mice are treated with either vehicle or test compound (p.o.) for at least 1 h prior to administration of the albumin marker Evans blue (50 mg/kg, i.v., 0.9% NaCl) and subsequent challenge with LPA (5 μg, i.d.). After 30 minutes, mice are sacrificed by CO2 inhalation. Discs of skin from the injection sites are removed, digested in formamide (500 μl, 37° C., 24 hrs) and the content of Evans blue quantified by colorimetric assay. Results are expressed as extravasated Evans blue per skin disc (μg/disc).
As an example, selected compound of the present invention, Ex 5-2, is able to effectively reduce LPA-induced vascular leakage after oral administration of 30 mg/kg to mice as compared to a group of animals treated with vehicle only. Reduction of vascular leakage compared to vehicle group was ≥60%.

NHLF = assay: TGFβ-induced αSMA expression in human fibroblasts, combination with nintedanib; assay type: cell-based; conditions: 1 μM nintedanib, TGFβ 5 ng/ml, 48 h
Description: Combination Efficacy Experiment: TGFβ-Induced αSMA Expression in Human Fibroblasts:
NHLF were obtained from Lonza. 10'000 cells were seeded in 24-well plates in 300 μl FGM™ and incubated for 20 hours at 37° C., 5% CO2. The medium was changed for 300 μl FBM™ supplemented with 0.1% fatty acid free BSA (Sigma) and the plate incubated for 20 hours at 37° C., 5% CO2. 100 μl of the respective COMPOUND, nintedanib or their combination (solution in FBM™/0.1% fatty acid free BSA) were added per well and incubated for 30 minutes, followed by addition of 100 μl of TGFβ (5 ng/ml final) (solution in FBM™/0.1% fatty acid free BSA) and incubation for 48 h at 37° C., 5% CO2. […] Samples were resolved by SDS-PAGE on 4-12% Novex Bis-Tris precast gels (Thermo Fischer Scientific) and analyzed by western blot using αSMA (Sigma) and HRP-coupled secondary antibodies.
Membranes were treated with Western Lighting Enhanced Chemiluminescence Substrate (Perkin Elmer) and the chemiluminescence signal was recorded by the reader Fusion FX6 (Viber Lourmat). Signals were quantified using densitometric analysis in Fusion software. % of inhibition of TGFβ-induced αSMA expression was calculated for each COMPOUND, nintedanib and their combination. Additive effect was calculated by adding the values of % of inhibition by COMPOUND alone and nintedanib alone and expressed as “expected combo inhibition”. […]

[3] = system: primary human lung (myo)fibroblasts; conditions: cited from earlier work; for fibroblast to myofibroblast differentiation and/or pro-fibrotic activity of (myo)fibroblasts: primary human lung (myo)fibroblasts, various conditions
[4] = cited from earlier work; remark: listed apart in the source
[5] = system: Normal Human Lung Fibroblasts (NHLF); assay: TGFβ-induced αSMA expression in human fibroblasts, combination with pirfenidone; assay type: cell-based
Description: The anti-fibrotic effect of the respective Example COMPOUND A-C or Reference COMPOUND D (BMS-986020) and pirfenidone alone or in combination can be determined in vitro in the assay of TGFβ-induced myofibroblast differentiation.
Combination Efficacy Experiment: Transforming Growth Factor Beta (TGFβ)-Induced α-Smooth Muscle Actin (αSMA) Expression in Human Fibroblasts:
Normal Human Lung Fibroblasts (NHLF) were obtained from Lonza. 10'000 cells were seeded in 24-well plates in 300 μl Fibroblast Growth Medium-2 (FGM™-2, Lonza) and incubated for 20 hours at 37° C., 5% CO2. […] Samples were resolved by SDS-PAGE on 4-12% Novex Bis-Tris precast gels (Thermo Fischer Scientific) and analyzed by western blot using αSMA (Sigma) and HRP-coupled secondary antibodies. Membranes were treated with Western Lighting Enhanced Chemiluminescence Substrate (Perkin Elmer) and the chemiluminescence signal was recorded by the reader Fusion FX6 (Viber Lourmat). Signals were quantified using densitometric analysis in Fusion software. % of inhibition of TGFβ-induced αSMA expression was calculated for each COMPOUND, pirfenidone and their combination. Additive effect was calculated by adding the values of % of inhibition by COMPOUND alone and pirfenidone alone and expressed as “expected combo inhibition”. Measured % of inhibition by COMPOUND and pirfenidone combination was expressed as “measured combo inhibition”. […]

[6] = cited from earlier work; remark: listed apart in the source

pIC50 (human LPA1 receptor): 7.92
Compound: 4-(3-((6-chloro-4-ethoxypyridin-3-yl)carbamoyl)-3-(2-isopropylphenyl)azetidin-1-yl)-2,2-dimethyl-4-oxobutanoic acid [Example 4-5]

pIC50 (human LPA1 receptor): 7.10
Compound: COc1cc(Cl)ncc1NC(=O)C1(c2ccccc2C(C)C)CN(C(=O)CC(C)(C)C(=O)O)C1 [Example 4-2, 4-(3-((6-chloro-4-methoxypyridin-3-yl)carbamoyl)-3-(2-isopropylphenyl)azetidin-1-yl)-2,2-dimethyl-4-oxobutanoic acid]

pIC50 (human LPA1 receptor): 7.72
Compound: COc1cc(F)ncc1NC(=O)C1(c2ccccc2C(C)C)CN(S(N)(=O)=O)C1 [Example 5-1, N-(6-fluoro-4-methoxypyridin-3-yl)-3-(2-isopropylphenyl)-1-sulfamoylazetidine-3-carboxamide]

pIC50 (human LPA1 receptor): 8.52
Compound: CCOc1cc(Cl)ncc1NC(=O)C1(c2ccccc2C(C)C)CN(S(N)(=O)=O)C1 [Example 5-3, N-(6-chloro-4-ethoxypyridin-3-yl)-3-(2-isopropylphenyl)-1-sulfamoylazetidine-3-carboxamide]

pIC50 (human LPA1 receptor): 8.70
Compound: Cc1ccc(NC(=O)C2(c3ccccc3C(C)C)CN(S(N)(=O)=O)C2)c(OC(F)F)n1 [Example 5-7, N-(2-(difluoromethoxy)-6-methylpyridin-3-yl)-3-(2-isopropylphenyl)-1-sulfamoylazetidine-3-carboxamide]

pIC50 (human LPA1 receptor): 7.29
Compound: COc1nc(C)ccc1NC(=O)C1(c2ccccc2C(C)C)CN(S(N)(=O)=O)C1 [Example 5-8, 3-(2-isopropylphenyl)-N-(2-methoxy-6-methylpyridin-3-yl)-1-sulfamoylazetidine-3-carboxamide]

pIC50 (human LPA1 receptor): 7.85
Compound: Cc1ccc(NC(=O)C2(c3ccccc3C(C)C)CN(S(N)(=O)=O)C2)c(OC(C)C)n1 [Example 5-10, N-(2-isopropoxy-6-methylpyridin-3-yl)-3-(2-isopropylphenyl)-1-sulfamoylazetidine-3-carboxamide]

Further lines, the compound ahead of its results:

Compound: Cc1noc(-c2ccc(-c3ccc(C4(C(=O)O)CC4)cc3)cc2)c1NC(=O)O[C@H](C)c1ccccc1 [BMS-986020]
rate of decline in forced vital capacity (FVC) versus placebo ([1]; IPF patients, b.i.d.): significantly slower rate of decline
hepatic enzymes ([1]; both BMS-986020 treatment groups): Dose-related elevations
cases of cholecystitis determined to be related to treatment ([1]; study terminated early): three cases of cholecystitis

Compound: CCOc1cc(Cl)ncc1NC(=O)C1(c2ccccc2C(C)C)CN(CCC(C)(C)C(=O)O)C1 [Example 2-4, 4-(3-((6-chloro-4-ethoxypyridin-3-yl)carbamoyl)-3-(2-isopropylphenyl)azetidin-1-yl)-2,2-dimethylbutanoic acid]
pIC50 (human LPA1 receptor): 7.70

Compound: Cc1ccc(NC(=O)C2(c3ccccc3C(C)C)CN(CCCC(C)(C)C(=O)O)C2)c(OC(F)F)n1 [Example 3-1, 5-(3-((2-(difluoromethoxy)-6-methylpyridin-3-yl)carbamoyl)-3-(2-isopropylphenyl)azetidin-1-yl)-2,2-dimethylpentanoic acid]
pIC50 (human LPA1 receptor): 7.89

Compound: COc1cc(Cl)ncc1NC(=O)C1(c2ccccc2C(C)C)CN(S(N)(=O)=O)C1 [Example 5-2, N-(6-chloro-4-methoxypyridin-3-yl)-3-(2-isopropylphenyl)-1-sulfamoylazetidine-3-carboxamide]
Reduction of vascular leakage compared to vehicle group [2]: ≥ 60%

Compound: CCS(=O)(=O)O.COC(=O)c1ccc2c(c1)NC(=O)/C2=C(\Nc1ccc(N(C)C(=O)CN2CCN(C)CC2)cc1)c1ccccc1 [nintedanib, (3Z)-2,3-dihydro-3-[[[4-[methyl-[(4-methyl-1-piperazinyl)-acetyl]-amino]-phenyl]-amino]-phenylmethylene]-2-oxo-1H-indole-6-carboxylic acid methyl ester ethanesulfonate]
inhibition of TGFβ-induced αSMA expression, nintedanib alone (NHLF): minimally inhibited
fibroblast to myofibroblast differentiation and/or pro-fibrotic activity of (myo)fibroblasts [3]: attenuated, but usually did not fully inhibit
elevated liver enzymes and drug-induced liver injury ([4]; clinical and postmarketing): ALT, AST, and bilirubin elevations have occurred
reduction of the decline in lung function ([4]; two phase III trials, over one year): approximately 50%

Compound: Cc1ccc(=O)n(-c2ccccc2)c1 [pirfenidone, 5-methyl-1-phenyl-2-(1H)-pyridone]
inhibition of TGFβ-induced αSMA expression, pirfenidone alone ([5]; 2 mM pirfenidone, TGFβ 5 ng/ml, 48 h): minimally inhibited
pirfenidone potency (IC50) on TGFβ-induced αSMA expression when combined with COMPOUND A ([5]; presence of 10 nM, 100 nM and 1000 nM COMPOUND A versus absence (FIG. 5)): gains in potency
patients requiring dosage reduction or interruption for gastrointestinal events ([6]; 2403 mg/day group): 18.5%
patients who discontinued treatment due to a gastrointestinal event ([6]; 2403 mg/day group): 2.2%
patients with elevations ≥10×ULN in ALT or AST ([6]; 2403 mg/day group): 0.3%
incidence of elevations in ALT or AST ≥3× upper limit of normal (ULN) ([6]; 2403 mg/day, three Phase 3 trials): 3.7%
drug-induced liver injury (DILI) ([6]; clinical and postmarketing): Cases of drug-induced liver injury (DILI) have been observed
concentrations used to observe significant effects in vitro ([3]; in vitro): > 0.5 mM
fibroblast to myofibroblast differentiation and/or pro-fibrotic activity of (myo)fibroblasts [3]: attenuated, but usually did not fully inhibit

Reference: patent publication US12539294B2, “Combination of an azetidine LPA1 receptor antagonist with pirfenidone and/or nintedanib for use in the treatment of fibrotic diseases” (Idorsia Pharmaceuticals Ltd, priority 2020, dated 2026)
